Measurements: PubChem BioAssay (NCI)
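Interpolation was linear, between the two tested concentrations surrounding the appropriate level; five concentrations were tested over 48 hours in 96-well plates. The concentration for 50% growth inhibition is given as GI50. The concentration for full growth arrest is given as TGI.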

What follows are molecules tested on SK-MEL-2 melanoma (assay: DTP human tumour cell line panel, 48 h).

SMILES	TGI [µM]	GI50 [µM]
OCC1OC(n2cnc3c2NC=NC[C@H]3O)C(Cl)C1O (some centres undefined)	> 100	–
COc1ccc(C2=C(Cl)c3cc(OC)c(OC)cc3C2Cl)cc1 (centres undefined)	26.3	–
O=C(/C=C/c1ccc(Cl)c(Cl)c1)c1ccc2ccccc2c1	> 100	–
COc1ccc(-c2[nH]c3ccc(OC)cc3c2/C=C(\C#N)S(=O)(=O)c2ccccc2)cc1	> 69.3	6.42
O=c1cc(NCC(O)CN2CCCC2)n(Cc2ccccc2)c(=O)n1Cc1ccccc1 (centres undefined)	> 100	> 100
c1ccc(Sc2ccc(Cc3nc4cc5ccccc5cc4[nH]3)cc2)cc1	> 100	53.6
CCc1nc2cc(F)c(/C=C/C(=O)NO)cc2c(=O)n1CCc1ccccc1	0.863	0.293
COc1cc(OC)c(C(=O)/C=C/c2cccc(C(F)(F)F)c2)c(OC)c1	3.37	1.22
C/C(=N\Nc1ccc(Cl)cn1)c1ccc2ccccc2n1	> 100	6.67
CC1=C(/C=C/Cl)CC(Cl)C(C)(Cl)C1 (centres undefined)	> 100	–
COc1cc2c(cc1OCCCCC(=O)Nc1cc3c4ccccc4ccc3c3ccccc13)N=C[C@@H]1CCCN1C2=O	58.8	8.4
COc1c2c(cc3c1OCO3)[C@]13C=C[C@H](OC)C[C@H]1N(C2)CC3O (some centres undefined)	> 100	–
Cc1[nH]c(=O)nc2[nH][nH]c(=O)c12	> 100	–
C=C1C(=O)O[C@H]2[C@H]1CC/C(COC(=O)NCCCCNC(=O)OC/C1=C/CC[C@@]3(C)O[C@H]3[C@H]3OC(=O)C(=C)[C@@H]3CC1)=C\CC[C@@]1(C)O[C@@H]21	4.89	1.77
Cc1cc(NS(=O)(=O)c2ccc(Nc3c4ccccc4nc4c(C(=O)N5CCN(CCO)CC5)cccc34)cc2)no1	> 100	–
COc1ccc(C[N+](C)(C)N)cc1OC	> 100	–
COc1ccc(-c2nc3ccccn3c2/C=C/C(=O)c2cc(OC)c(OC)c(OC)c2)cc1OC	7.19	2.37
CC(C)c1c(O)c(O)c2c(c1O)C(=O)C(O)=C1C(C)(C)CCC[C@@]12C	13.9	–
NS(=O)(=O)c1ccc(-c2ccc3c(NC(=O)C4CC4)n[nH]c3c2)cc1	> 25	> 25
COc1cc2c3c(n(CCCN)c(=O)c2cc1OC)-c1ccc(C#N)cc1C3=O	> 100	26.2
O=C1c2ccccc2C(=O)C1(O)c1c[nH]c2ccccc12	> 100	–
O=C(Nc1cc(Cl)c(Cl)cc1Cl)C(=O)C1C(=O)NC(=S)NC1=O	> 100	–

The molecules below were run on MALME-3M melanoma (assay: DTP human tumour cell line panel, 48 h).

SMILES	TGI [µM]	GI50 [µM]
OCC1OC(n2cnc3c2NC=NC[C@H]3O)C(Cl)C1O (some centres undefined)	> 100	–
COc1ccc(C2=C(Cl)c3cc(OC)c(OC)cc3C2Cl)cc1 (centres undefined)	46.9	–
O=C(/C=C/c1ccc(Cl)c(Cl)c1)c1ccc2ccccc2c1	> 100	–
COc1ccc(-c2[nH]c3ccc(OC)cc3c2/C=C(\C#N)S(=O)(=O)c2ccccc2)cc1	> 82.2	3.13
O=c1cc(NCC(O)CN2CCCC2)n(Cc2ccccc2)c(=O)n1Cc1ccccc1 (centres undefined)	61.7	22.6
c1ccc(Sc2ccc(Cc3nc4cc5ccccc5cc4[nH]3)cc2)cc1	66.7	9.93
CCc1nc2cc(F)c(/C=C/C(=O)NO)cc2c(=O)n1CCc1ccccc1	0.907	0.216
COc1cc(OC)c(C(=O)/C=C/c2cccc(C(F)(F)F)c2)c(OC)c1	8.3	2.38
C/C(=N\Nc1ccc(Cl)cn1)c1ccc2ccccc2n1	> 100	2.21
CC1=C(/C=C/Cl)CC(Cl)C(C)(Cl)C1 (centres undefined)	> 100	–
COc1cc2c(cc1OCCCCC(=O)Nc1cc3c4ccccc4ccc3c3ccccc13)N=C[C@@H]1CCCN1C2=O	16	3.85
COc1c2c(cc3c1OCO3)[C@]13C=C[C@H](OC)C[C@H]1N(C2)CC3O (some centres undefined)	> 100	–
Cc1[nH]c(=O)nc2[nH][nH]c(=O)c12	> 100	–
C=C1C(=O)O[C@H]2[C@H]1CC/C(COC(=O)NCCCCNC(=O)OC/C1=C/CC[C@@]3(C)O[C@H]3[C@H]3OC(=O)C(=C)[C@@H]3CC1)=C\CC[C@@]1(C)O[C@@H]21	2.19	0.452
Cc1cc(NS(=O)(=O)c2ccc(Nc3c4ccccc4nc4c(C(=O)N5CCN(CCO)CC5)cccc34)cc2)no1	> 100	–
COc1ccc(C[N+](C)(C)N)cc1OC	> 100	> 100
COc1ccc(-c2nc3ccccn3c2/C=C/C(=O)c2cc(OC)c(OC)c(OC)c2)cc1OC	7.34	2.36
CC(C)c1c(O)c(O)c2c(c1O)C(=O)C(O)=C1C(C)(C)CCC[C@@]12C	15.9	–
NS(=O)(=O)c1ccc(-c2ccc3c(NC(=O)C4CC4)n[nH]c3c2)cc1	> 25	> 25
COc1cc2c3c(n(CCCN)c(=O)c2cc1OC)-c1ccc(C#N)cc1C3=O	73.3	18.9
O=C1c2ccccc2C(=O)C1(O)c1c[nH]c2ccccc12	> 100	–
O=C(Nc1cc(Cl)c(Cl)cc1Cl)C(=O)C1C(=O)NC(=S)NC1=O	> 100	–

Each molecule was assayed on CCRF-CEM leukemia (assay: DTP human tumour cell line panel, 48 h).

SMILES	TGI [µM]	GI50 [nM]
OCC1OC(n2cnc3c2NC=NC[C@H]3O)C(Cl)C1O (some centres undefined)	> 100	–
COc1ccc(C2=C(Cl)c3cc(OC)c(OC)cc3C2Cl)cc1 (centres undefined)	21	–
O=C(/C=C/c1ccc(Cl)c(Cl)c1)c1ccc2ccccc2c1	> 100	–
COc1ccc(-c2[nH]c3ccc(OC)cc3c2/C=C(\C#N)S(=O)(=O)c2ccccc2)cc1	6.19	894
O=c1cc(NCC(O)CN2CCCC2)n(Cc2ccccc2)c(=O)n1Cc1ccccc1 (centres undefined)	80.6	28100
c1ccc(Sc2ccc(Cc3nc4cc5ccccc5cc4[nH]3)cc2)cc1	> 59	1420
CCc1nc2cc(F)c(/C=C/C(=O)NO)cc2c(=O)n1CCc1ccccc1	> 100	400
COc1cc(OC)c(C(=O)/C=C/c2cccc(C(F)(F)F)c2)c(OC)c1	3.46	1090
C/C(=N\Nc1ccc(Cl)cn1)c1ccc2ccccc2n1	> 100	513
CC1=C(/C=C/Cl)CC(Cl)C(C)(Cl)C1 (centres undefined)	74.2	–
COc1cc2c(cc1OCCCCC(=O)Nc1cc3c4ccccc4ccc3c3ccccc13)N=C[C@@H]1CCCN1C2=O	> 100	1550
COc1c2c(cc3c1OCO3)[C@]13C=C[C@H](OC)C[C@H]1N(C2)CC3O (some centres undefined)	> 100	–
Cc1[nH]c(=O)nc2[nH][nH]c(=O)c12	> 100	–
C=C1C(=O)O[C@H]2[C@H]1CC/C(COC(=O)NCCCCNC(=O)OC/C1=C/CC[C@@]3(C)O[C@H]3[C@H]3OC(=O)C(=C)[C@@H]3CC1)=C\CC[C@@]1(C)O[C@@H]21	0.845	272
Cc1cc(NS(=O)(=O)c2ccc(Nc3c4ccccc4nc4c(C(=O)N5CCN(CCO)CC5)cccc34)cc2)no1	> 100	–
COc1ccc(C[N+](C)(C)N)cc1OC	> 100	> 100000
COc1ccc(-c2nc3ccccn3c2/C=C/C(=O)c2cc(OC)c(OC)c(OC)c2)cc1OC	> 100	1540
CC(C)c1c(O)c(O)c2c(c1O)C(=O)C(O)=C1C(C)(C)CCC[C@@]12C	7.43	–
NS(=O)(=O)c1ccc(-c2ccc3c(NC(=O)C4CC4)n[nH]c3c2)cc1	> 25	> 25000
COc1cc2c3c(n(CCCN)c(=O)c2cc1OC)-c1ccc(C#N)cc1C3=O	31.7	6440
O=C1c2ccccc2C(=O)C1(O)c1c[nH]c2ccccc12	> 100	–
O=C(Nc1cc(Cl)c(Cl)cc1Cl)C(=O)C1C(=O)NC(=S)NC1=O	> 100	–

What follows are molecules tested on SF-268 CNS (assay: DTP human tumour cell line panel, 48 h).

SMILES	TGI [µM]	GI50 [µM]
OCC1OC(n2cnc3c2NC=NC[C@H]3O)C(Cl)C1O (some centres undefined)	> 100	–
COc1ccc(C2=C(Cl)c3cc(OC)c(OC)cc3C2Cl)cc1 (centres undefined)	36	–
O=C(/C=C/c1ccc(Cl)c(Cl)c1)c1ccc2ccccc2c1	> 100	–
COc1ccc(-c2[nH]c3ccc(OC)cc3c2/C=C(\C#N)S(=O)(=O)c2ccccc2)cc1	> 100	1.56
O=c1cc(NCC(O)CN2CCCC2)n(Cc2ccccc2)c(=O)n1Cc1ccccc1 (centres undefined)	> 100	47.5
c1ccc(Sc2ccc(Cc3nc4cc5ccccc5cc4[nH]3)cc2)cc1	> 100	8.48
CCc1nc2cc(F)c(/C=C/C(=O)NO)cc2c(=O)n1CCc1ccccc1	10.1	0.355
COc1cc(OC)c(C(=O)/C=C/c2cccc(C(F)(F)F)c2)c(OC)c1	6.13	1.64
C/C(=N\Nc1ccc(Cl)cn1)c1ccc2ccccc2n1	> 100	2.75
CC1=C(/C=C/Cl)CC(Cl)C(C)(Cl)C1 (centres undefined)	> 100	–
COc1cc2c(cc1OCCCCC(=O)Nc1cc3c4ccccc4ccc3c3ccccc13)N=C[C@@H]1CCCN1C2=O	15	2.67
COc1c2c(cc3c1OCO3)[C@]13C=C[C@H](OC)C[C@H]1N(C2)CC3O (some centres undefined)	> 100	–
Cc1[nH]c(=O)nc2[nH][nH]c(=O)c12	> 100	–
C=C1C(=O)O[C@H]2[C@H]1CC/C(COC(=O)NCCCCNC(=O)OC/C1=C/CC[C@@]3(C)O[C@H]3[C@H]3OC(=O)C(=C)[C@@H]3CC1)=C\CC[C@@]1(C)O[C@@H]21	12.6	3.18
Cc1cc(NS(=O)(=O)c2ccc(Nc3c4ccccc4nc4c(C(=O)N5CCN(CCO)CC5)cccc34)cc2)no1	> 100	–
COc1ccc(C[N+](C)(C)N)cc1OC	> 100	> 100
COc1ccc(-c2nc3ccccn3c2/C=C/C(=O)c2cc(OC)c(OC)c(OC)c2)cc1OC	65.2	3.58
CC(C)c1c(O)c(O)c2c(c1O)C(=O)C(O)=C1C(C)(C)CCC[C@@]12C	20	–
NS(=O)(=O)c1ccc(-c2ccc3c(NC(=O)C4CC4)n[nH]c3c2)cc1	> 25	> 25
COc1cc2c3c(n(CCCN)c(=O)c2cc1OC)-c1ccc(C#N)cc1C3=O	42.4	14.7
O=C1c2ccccc2C(=O)C1(O)c1c[nH]c2ccccc12	> 100	–
O=C(Nc1cc(Cl)c(Cl)cc1Cl)C(=O)C1C(=O)NC(=S)NC1=O	> 100	–

What follows are molecules tested on NCI-H23 lung (assay: DTP human tumour cell line panel, 48 h).

SMILES	TGI [µM]	GI50 [µM]
OCC1OC(n2cnc3c2NC=NC[C@H]3O)C(Cl)C1O (some centres undefined)	> 100	–
COc1ccc(C2=C(Cl)c3cc(OC)c(OC)cc3C2Cl)cc1 (centres undefined)	> 54.5	–
O=C(/C=C/c1ccc(Cl)c(Cl)c1)c1ccc2ccccc2c1	> 100	–
COc1ccc(-c2[nH]c3ccc(OC)cc3c2/C=C(\C#N)S(=O)(=O)c2ccccc2)cc1	> 33.3	0.965
O=c1cc(NCC(O)CN2CCCC2)n(Cc2ccccc2)c(=O)n1Cc1ccccc1 (centres undefined)	> 100	92
c1ccc(Sc2ccc(Cc3nc4cc5ccccc5cc4[nH]3)cc2)cc1	36.1	7.46
CCc1nc2cc(F)c(/C=C/C(=O)NO)cc2c(=O)n1CCc1ccccc1	7.07	0.375
COc1cc(OC)c(C(=O)/C=C/c2cccc(C(F)(F)F)c2)c(OC)c1	3.48	1.14
C/C(=N\Nc1ccc(Cl)cn1)c1ccc2ccccc2n1	> 100	3.55
CC1=C(/C=C/Cl)CC(Cl)C(C)(Cl)C1 (centres undefined)	> 100	–
COc1cc2c(cc1OCCCCC(=O)Nc1cc3c4ccccc4ccc3c3ccccc13)N=C[C@@H]1CCCN1C2=O	47.5	20
COc1c2c(cc3c1OCO3)[C@]13C=C[C@H](OC)C[C@H]1N(C2)CC3O (some centres undefined)	> 100	–
Cc1[nH]c(=O)nc2[nH][nH]c(=O)c12	> 100	–
C=C1C(=O)O[C@H]2[C@H]1CC/C(COC(=O)NCCCCNC(=O)OC/C1=C/CC[C@@]3(C)O[C@H]3[C@H]3OC(=O)C(=C)[C@@H]3CC1)=C\CC[C@@]1(C)O[C@@H]21	5.54	2.18
Cc1cc(NS(=O)(=O)c2ccc(Nc3c4ccccc4nc4c(C(=O)N5CCN(CCO)CC5)cccc34)cc2)no1	> 100	–
COc1ccc(C[N+](C)(C)N)cc1OC	> 100	> 100
COc1ccc(-c2nc3ccccn3c2/C=C/C(=O)c2cc(OC)c(OC)c(OC)c2)cc1OC	> 100	3.78
CC(C)c1c(O)c(O)c2c(c1O)C(=O)C(O)=C1C(C)(C)CCC[C@@]12C	13.8	–
NS(=O)(=O)c1ccc(-c2ccc3c(NC(=O)C4CC4)n[nH]c3c2)cc1	> 25	> 25
COc1cc2c3c(n(CCCN)c(=O)c2cc1OC)-c1ccc(C#N)cc1C3=O	25.6	9.02
O=C1c2ccccc2C(=O)C1(O)c1c[nH]c2ccccc12	> 100	–
O=C(Nc1cc(Cl)c(Cl)cc1Cl)C(=O)C1C(=O)NC(=S)NC1=O	> 100	–
